# Experimental data from patent US20080206367A1, “Morinda Citrifolia-based Formulations and Methods for Weight Management” (priority 2004, published 2008).
# Molecular target: T1, CCK1 receptor (Rattus norvegicus, UniProt P30551)
# T1 construct: from tissue; host or cells: live male rats (in vivo; gastrointestinal tract)
# T1 sequence (P30551 1-444): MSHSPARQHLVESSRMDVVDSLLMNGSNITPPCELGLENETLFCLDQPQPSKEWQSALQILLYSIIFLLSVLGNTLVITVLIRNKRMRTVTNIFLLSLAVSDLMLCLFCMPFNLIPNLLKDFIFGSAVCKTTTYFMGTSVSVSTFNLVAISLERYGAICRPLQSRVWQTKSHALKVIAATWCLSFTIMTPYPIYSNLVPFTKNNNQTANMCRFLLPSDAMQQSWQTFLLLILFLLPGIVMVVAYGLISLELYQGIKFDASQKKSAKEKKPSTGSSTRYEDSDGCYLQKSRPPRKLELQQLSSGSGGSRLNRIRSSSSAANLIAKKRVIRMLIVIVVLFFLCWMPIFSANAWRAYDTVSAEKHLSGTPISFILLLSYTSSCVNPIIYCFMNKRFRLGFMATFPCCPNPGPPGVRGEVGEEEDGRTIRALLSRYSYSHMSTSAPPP
# Assay: Effects of lorglumide on noni-mediated inhibition of gastric emptying and intestinal transit
# Format: in vivo
# Details: lorglumide i.p. 15 min before test meal, rats given noni 1 ml/kg orally for 7 days
# Method: Male rats were divided into four groups and fasted for 24 h before use. Fifteen min before gastric intubation of a non-nutrient liquid meal, the animals were injected i.p. with the following compounds in 1 ml/kg: group 1 received dimethyl sulfoxide (DMSO), […], respectively. Groups 2-4 received 1 ml/kg of noni orally once daily for 7 days.
# Gastric emptying and intestinal transit were measured. Rats were intubated via a catheter with physiological saline (3 ml/kg) containing Na2^51CrO4 (0.5 μCi/ml) and 10% charcoal. The test meal was continuously stirred before intubation. Air (0.5 ml) was injected to flush the residual charcoal suspension in the catheter into rat stomach. Fifteen minutes later, the rats were decapitated and the stomach with the attached small intestine was immediately exposed by laparotomy. […] The small intestine was then divided into ten equal segments, and the radioactivity in the stomach and each segment of small intestine was measured in an automatic gamma counter. Gastric emptying was measured by determining the amount of labeled chromium contained in the small intestine fifteen minutes after intubation, expressed as a percentage of the amount given. Intestinal transit was assessed by calculating the geometric center of distribution of the radioactivity within the 10 segments by summation of the radioactivity in each segment multiplied by the segment number.
smiles,measurement,setting,value
CCCCCN(CCCCC)C(=O)C(CCC(=O)O)NC(=O)c1ccc(Cl)c(Cl)c1 (centres unmarked) [lorglumide],Noni-induced inhibition of intestinal transit,,not altered
same,Noni-induced inhibition of gastric emptying,P<0.01,significantly prevented
